ChEMBL document CHEMBL6078713, “Synthesis and mechanistic studies of 4-aminoquinoline-Isatin molecular hybrids and Schiff's bases as promising antimicrobial agents” (Eur J Med Chem, 2025)
In brackets after ≈: the same amount, converted by molar mass. Activity calls are given as the source filed them. The calls are words filed in the database; no cut-off is given here.

Experiments:
[1] = tested on: Staphylococcus aureus; experiment: Antibacterial activity against Staphylococcus aureus MTCC 902 assessed as inhibition of bacterial growth incubated overnight by serial dilution based spectrophotometer; assay type: functional
[2] = tested on: Salmonella typhi; experiment: Antibacterial activity against Salmonella typhi assessed as diameter of zone of inhibition at 2 times MIC incubated overnight by disk diffusion method; assay type: functional, Salmonella enterica subsp. enterica serovar Typhi
[3] = tested on: Escherichia coli; experiment: Bacteriostatic activity against Escherichia coli MTCC 443 assessed as reduction in log phase of bacterial growth at 0.5 to 1 times MIC measured upto 24 hrs by absorbance based assay; assay type: functional, organism-based
[4] = tested on: Enterococcus faecalis; experiment: Antibacterial activity against Enterococcus faecalis MTCC 439 assessed as diameter of zone of inhibition at 0.5 times MIC incubated overnight by disk diffusion method; assay type: functional
[5] = tested on: Escherichia coli; experiment: Bactericidal activity against Escherichia coli MTCC 443 assessed as inhibition of bacterial growth incubated overnight; assay type: functional
[6] = tested on: Pseudomonas aeruginosa; experiment: Antibacterial activity against Pseudomonas aeruginosa MTCC 2453 assessed as diameter of zone of inhibition at 500 ug/ml by agar disk diffusion method; assay type: functional; conditions: read-out: DIZ
[7] = tested on: Escherichia coli; experiment: Antibacterial activity against Escherichia coli MTCC 443 assessed as diameter of zone of inhibition at 0.5 times MIC incubated overnight by disk diffusion method; assay type: functional
[8] = tested on: Bacillus subtilis; experiment: Ratio of MBC for antibacterial activity against Bacillus subtilis MTCC 736 to MIC for bactericidal activity against Bacillus subtilis MTCC 736; assay type: functional
[9] = tested on: Bacillus subtilis; experiment: Synergistic antibacterial activity against Bacillus subtilis MTCC 736 assessed as inhibition of bacterial growth incubated overnight in presence of ciprofloxacin by serial dilution based spectrophotometer; assay type: functional
[10] = tested on: Pseudomonas aeruginosa; experiment: Antibacterial activity against Pseudomonas aeruginosa MTCC 2453 assessed as inhibition of bacterial growth incubated overnight by serial dilution based spectrophotometer; assay type: functional
[11] = tested on: Pseudomonas aeruginosa; experiment: Ratio of MBC for antibacterial activity against Pseudomonas aeruginosa MTCC 2453 to MIC for bactericidal activity against Pseudomonas aeruginosa MTCC 2453; assay type: functional
[12] = tested on: Escherichia coli; experiment: Antibacterial activity against Escherichia coli MTCC 443 assessed as inhibition of bacterial growth incubated overnight by serial dilution based spectrophotometer; assay type: functional
[13] = tested on: Salmonella typhi; experiment: Antibacterial activity against Salmonella typhi assessed as inhibition of bacterial growth incubated overnight by serial dilution based spectrophotometer; assay type: functional, Salmonella enterica subsp. enterica serovar Typhi; conditions: Salmonella enterica
[14] = tested on: Enterococcus faecalis; experiment: Antibacterial activity against Enterococcus faecalis MTCC 439 assessed as diameter of zone of inhibition at MIC incubated overnight by disk diffusion method; assay type: functional
[15] = tested on: Salmonella typhi; experiment: Antibacterial activity against Salmonella typhi assessed as diameter of zone of inhibition at MIC incubated overnight by disk diffusion method; assay type: functional, Salmonella enterica subsp. enterica serovar Typhi
[16] = tested on: Bacillus subtilis; experiment: Bactericidal activity against Bacillus subtilis MTCC 736 assessed as inhibition of bacterial growth incubated overnight; assay type: functional
[17] = tested on: Staphylococcus aureus; experiment: Bacteriostatic activity against Staphylococcus aureus MTCC 902 assessed as reduction in bacterial growth at 2 times MIC measured upto 10 hrs by absorbance based assay; assay type: functional, organism-based
[18] = tested on: Escherichia coli; experiment: Antibacterial activity against Escherichia coli MTCC 443 assessed as diameter of zone of inhibition at 2 times MIC incubated overnight by disk diffusion method; assay type: functional
[19] = tested on: Staphylococcus aureus; experiment: Antibacterial activity against Staphylococcus aureus MTCC 902 assessed as diameter of zone of inhibition at 0.5 times MIC incubated overnight by disk diffusion method; assay type: functional
[20] = tested on: Bacillus subtilis; experiment: Antibacterial activity against Bacillus subtilis MTCC 736 assessed as diameter of zone of inhibition at 2 times MIC incubated overnight by disk diffusion method; assay type: functional
[21] = tested on: Enterococcus faecalis; experiment: Antibacterial activity against Enterococcus faecalis MTCC 439 assessed as diameter of zone of inhibition at 2 times MIC incubated overnight by disk diffusion method; assay type: functional
[22] = tested on: Bacillus subtilis; experiment: Antibacterial activity against Bacillus subtilis MTCC 736 assessed as diameter of zone of inhibition at 0.5 times MIC incubated overnight by disk diffusion method; assay type: functional
[23] = tested on: Pseudomonas aeruginosa; experiment: Antibacterial activity against Pseudomonas aeruginosa MTCC 2453 assessed as diameter of zone of inhibition at MIC incubated overnight by disk diffusion method; assay type: functional
[24] = tested on: Staphylococcus aureus; experiment: Bacteriostatic activity against Staphylococcus aureus MTCC 902 assessed as lag phase of bacterial growth at 1 times MIC measured upto 24 hrs by absorbance based assay; assay type: functional, organism-based
[25] = tested on: Staphylococcus aureus; experiment: Bacteriostatic activity against Staphylococcus aureus MTCC 902 assessed as lag phase of bacterial growth at 0.5 times MIC measured upto 24 hrs by absorbance based assay; assay type: functional, organism-based
[26] = tested on: Pseudomonas aeruginosa; experiment: Synergistic antibacterial activity against Pseudomonas aeruginosa MTCC 2453 assessed as fractional inhibitory concentration index incubated overnight in presence of ciprofloxacin by microdilution checkerboard assay; assay type: functional
[27] = tested on: Bacillus subtilis; experiment: Antibacterial activity against Bacillus subtilis MTCC 736 assessed as diameter of zone of inhibition at MIC incubated overnight by disk diffusion method; assay type: functional
[28] = tested on: Escherichia coli; experiment: Antibacterial activity against Escherichia coli MTCC 443 assessed as diameter of zone of inhibition at MIC incubated overnight by disk diffusion method; assay type: functional
[29] = tested on: Bacillus subtilis; experiment: Antibacterial activity against Bacillus subtilis MTCC 736 assessed as inhibition of bacterial growth incubated overnight by serial dilution based spectrophotometer; assay type: functional
[30] = tested on: Escherichia coli; experiment: Antibacterial activity against Escherichia coli MTCC 443 assessed as diameter of zone of inhibition at 500 ug/ml by agar disk diffusion method; assay type: functional; conditions: read-out: DIZ
[31] = tested on: Enterococcus faecalis; experiment: Antibacterial activity against Enterococcus faecalis MTCC 439 assessed as inhibition of bacterial growth incubated overnight by serial dilution based spectrophotometer; assay type: functional
[32] = tested on: Staphylococcus aureus; experiment: Antibacterial activity against Staphylococcus aureus MTCC 902 assessed as diameter of zone of inhibition at MIC incubated overnight by disk diffusion method; assay type: functional
[33] = tested on: Pseudomonas aeruginosa; experiment: Antibacterial activity against Pseudomonas aeruginosa MTCC 2453 assessed as diameter of zone of inhibition at 2 times MIC incubated overnight by disk diffusion method; assay type: functional
[34] = tested on: Pseudomonas aeruginosa; experiment: Bactericidal activity against Pseudomonas aeruginosa MTCC 2453 assessed as inhibition of bacterial growth incubated overnight; assay type: functional
[35] = tested on: Escherichia coli; experiment: Synergistic antibacterial activity against Escherichia coli MTCC 443 assessed as inhibition of bacterial growth incubated overnight in presence of ciprofloxacin by serial dilution based spectrophotometer; assay type: functional
[36] = tested on: Staphylococcus aureus; experiment: Antibacterial activity against Staphylococcus aureus MTCC 902 assessed as diameter of zone of inhibition at 2 times MIC incubated overnight by disk diffusion method; assay type: functional
[37] = tested on: Pseudomonas aeruginosa; experiment: Antibacterial activity against Pseudomonas aeruginosa MTCC 2453 assessed as diameter of zone of inhibition at 0.5 times MIC incubated overnight by disk diffusion method; assay type: functional
[38] = tested on: Escherichia coli; experiment: Synergistic antibacterial activity against Escherichia coli MTCC 443 assessed as fractional inhibitory concentration index incubated overnight in presence of ciprofloxacin by microdilution checkerboard assay; assay type: functional
[39] = tested on: Bacillus subtilis; experiment: Synergistic antibacterial activity against Bacillus subtilis MTCC 736 assessed as fractional inhibitory concentration index incubated overnight in presence of ciprofloxacin by microdilution checkerboard assay; assay type: functional
[40] = tested on: Bacillus subtilis; experiment: Antibacterial activity against Bacillus subtilis MTCC 736 assessed as diameter of zone of inhibition at 500 ug/ml by agar disk diffusion method; assay type: functional; conditions: read-out: DIZ
[41] = tested on: Staphylococcus aureus; experiment: Antibacterial activity against Staphylococcus aureus MTCC 902 assessed as diameter of zone of inhibition at 500 ug/ml by agar disk diffusion method; assay type: functional; conditions: read-out: DIZ
[42] = tested on: Pseudomonas aeruginosa; experiment: Synergistic antibacterial activity against Pseudomonas aeruginosa MTCC 2453 assessed as inhibition of bacterial growth incubated overnight in presence of ciprofloxacin by serial dilution based spectrophotometer; assay type: functional
[43] = tested on: Escherichia coli; experiment: Bacteriostatic activity against Escherichia coli MTCC 443 assessed as reduction in bacterial growth at 2 times MIC measured upto 10 hrs by absorbance based assay; assay type: functional, organism-based
[44] = tested on: Enterococcus faecalis; experiment: Antibacterial activity against Enterococcus faecalis assessed as inhibition of bacterial growth; assay type: functional

Compound: O=C1Nc2cc(Cl)ccc2/C1=N/CCNc1ccnc2cc(Cl)ccc12
- MIC [1]: > 512 µg/mL
- diameter of the inhibition zone (DIZ) [2]: 7 mm
- Activity [3]: Active
- diameter of the inhibition zone (DIZ) [4]: 8 mm
- MBC [5]: > 512 µg/mL
- zone of inhibition at 500 µg/mL [6]: 11 mm
- diameter of the inhibition zone (DIZ) [7]: 9 mm
- Ratio [8]: 1
- MIC [9]: 64 µg/mL
- MIC [10]: 128 µg/mL (≈ 332 µM)
- Ratio [11]: 2
- MIC [12]: 256 µg/mL (≈ 664 µM)
- MIC [13]: > 512 µg/mL
- diameter of the inhibition zone (DIZ) [14]: 8 mm
- diameter of the inhibition zone (DIZ) [15]: 7 mm
- MBC [16]: 256 µg/mL (≈ 664 µM)
- Activity [17]: Active
- diameter of the inhibition zone (DIZ) [18]: 11 mm
- diameter of the inhibition zone (DIZ) [19]: 8 mm
- diameter of the inhibition zone (DIZ) [20]: 10 mm
- diameter of the inhibition zone (DIZ) [21]: 8 mm
- diameter of the inhibition zone (DIZ) [22]: 8 mm
- diameter of the inhibition zone (DIZ) [23]: 9 mm
- Activity [24]: Active
- Activity [25]: inactive
- fractional inhibitory concentration index (FICI) [26]: 1.25
- diameter of the inhibition zone (DIZ) [27]: 11 mm
- diameter of the inhibition zone (DIZ) [28]: 9 mm
- MIC [29]: 256 µg/mL (≈ 664 µM)
- zone of inhibition at 500 µg/mL [30]: 12 mm
- MIC [31]: > 512 µg/mL
- diameter of the inhibition zone (DIZ) [32]: 8 mm
- diameter of the inhibition zone (DIZ) [33]: 9 mm
- MBC [34]: 256 µg/mL (≈ 664 µM)
- MIC [35]: 16 µg/mL
- diameter of the inhibition zone (DIZ) [36]: 8 mm
- diameter of the inhibition zone (DIZ) [37]: 8 mm
- fractional inhibitory concentration index (FICI) [38]: 0.125
- fractional inhibitory concentration index (FICI) [39]: 0.75
- zone of inhibition at 500 µg/mL [40]: 11 mm
- zone of inhibition at 500 µg/mL [41]: 8 mm
- MIC [42]: 32 µg/mL
- Activity [43]: Active

Compound: O=C1Nc2cc(Cl)c(F)cc2/C1=N\NC(=O)c1cc(-c2cccc(Br)c2)n[nH]1
- MIC [44]: 8 µg/mL (≈ 17.3 µM)
